Data published in patent US20050209320A1 (priority 2003, published 2005).
Where two headings read alike, the source gives them in different places.

Assays:
[1] = system: LNCaP prostate cancer cells (express AR); settings: for IC50: read-out: Growth Curve LNCaP
[2] = system: CV-1 monkey kidney cells (do not express AR); settings: for IC50: read-out: Growth Curve CV-1
[3] = system: LNCaP prostate cancer cells (express AR); test: cells; settings: Homo sapiens, 120 h, read-out: Growth Curve LNCaP
Androgen Receptor (AR) = biological target: T1, Androgen Receptor (AR) (Rattus norvegicus, UniProt P15207); format: binding
T1 sequence (P15207 1-902): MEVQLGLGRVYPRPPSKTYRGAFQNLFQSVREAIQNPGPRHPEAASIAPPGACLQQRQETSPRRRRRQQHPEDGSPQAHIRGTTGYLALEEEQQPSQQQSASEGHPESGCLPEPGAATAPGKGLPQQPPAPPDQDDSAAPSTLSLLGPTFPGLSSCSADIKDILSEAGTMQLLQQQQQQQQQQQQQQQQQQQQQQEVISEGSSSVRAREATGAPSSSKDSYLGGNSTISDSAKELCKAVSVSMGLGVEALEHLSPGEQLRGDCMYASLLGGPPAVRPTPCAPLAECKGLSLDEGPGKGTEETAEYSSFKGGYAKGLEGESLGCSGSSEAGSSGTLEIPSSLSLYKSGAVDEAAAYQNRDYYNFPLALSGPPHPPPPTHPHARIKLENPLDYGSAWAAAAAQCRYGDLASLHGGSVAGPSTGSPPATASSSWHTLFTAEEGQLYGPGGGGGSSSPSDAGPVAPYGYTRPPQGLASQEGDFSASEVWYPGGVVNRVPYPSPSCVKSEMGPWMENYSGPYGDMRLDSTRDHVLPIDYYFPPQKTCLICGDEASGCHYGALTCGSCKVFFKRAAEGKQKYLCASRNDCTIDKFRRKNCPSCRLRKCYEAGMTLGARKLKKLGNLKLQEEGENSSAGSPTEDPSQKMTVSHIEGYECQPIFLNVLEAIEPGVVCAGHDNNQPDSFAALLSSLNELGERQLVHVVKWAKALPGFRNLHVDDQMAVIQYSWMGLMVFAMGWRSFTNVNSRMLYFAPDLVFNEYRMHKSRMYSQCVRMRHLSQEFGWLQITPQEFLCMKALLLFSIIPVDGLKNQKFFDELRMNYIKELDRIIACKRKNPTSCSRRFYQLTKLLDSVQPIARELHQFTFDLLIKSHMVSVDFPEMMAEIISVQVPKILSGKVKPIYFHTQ

[4] = system: LNCaP prostate cancer cells (express AR)

SMILES | cytotoxicity / cell growth inhibition in LNCaP cells [1] | IC50 [1] [nM] | IC50 [2] [nM] | other results
C[C@](O)(COc1ccc(N(CCO)CCO)cc1)C(=O)Nc1ccc(C#N)c(C(F)(F)F)c1 [Compound 2] | not cytotoxic | – | – | max inhibition [1]: Trypan Blue (max 65% inhibition); cytotoxicity in CV-1 cells [2]: not cytotoxic; IC50 [3]: 770 nM
C[C@](O)(CSc1ccc(OC(=O)N(CCCl)CCCl)cc1)C(=O)Nc1ccc([N+](=O)[O-])c(C(F)(F)F)c1 [Compound 6] | – | 800 | 4650 | –
C[C@](O)(COc1ccc(N(CCCl)CCCl)cc1)C(=O)Nc1ccc([N+](=O)[O-])c(C(F)(F)F)c1.Cl [Compound 8] | potent and selective cell growth inhibition effect | 810 | 5200 | –
C[C@](O)(COc1ccc(N(CCCl)CCCl)cc1)C(=O)Nc1ccc(C#N)c(C(F)(F)F)c1.Cl [Compound 1] | – | 860 | 1940 | cytotoxicity in CV-1 cells [2]: cytotoxic; potency in CV-1 cells less than in LNCaP cells [2]: approximately 3.5 fold
C[C@](O)(COc1ccc(N(CCCl)CCCl)cc1)C(=O)Nc1ccc(C#N)c(I)c1.Cl [Compound 7] | potent and selective cell growth inhibition effect | 330 | 2610 | –
OCCN(CCO)c1ccc(O)cc1 [Compound 4] | – | – | – | Ki (nM) (Androgen Receptor (AR)): DNB; cytotoxicity in LNCaP cells [4]: nontoxic
C[C@](O)(CS(=O)(=O)c1ccc(OC(=O)N(CCCl)CCCl)cc1)C(=O)Nc1ccc([N+](=O)[O-])c(C(F)(F)F)c1 [Compound 10] | – | 1500 | 2600 | –
